The results in this text go back to the COVID Moonshot data (paper PMC7615835).

Molecules are shown by their SMILES. Several values for one entry are separate records, joined by “and”; a condition that tells them apart may be missing. Equal entries are not always repeated. Where only a bound is given, the exact number is not on record here.

The experiment addresses SARS-CoV-2 Main Protease (SARS-CoV-2) (UniProt P0DTD1).

Usually IC50 stands for the concentration at which inhibition is half-maximal. Higher therefore signals weaker potency. Molecule `Cc1ccncc1NC(=O)Cc1cc(Cl)cc(-c2ccc(C)c(F)c2F)c1` gave an IC50 of 31.9 µM.

With `CC(C)(COP(=O)(O)OP(=O)(O)OC[C@H]1O[C@@H](n2cnc3c(N)ncnc32)[C@H](O)[C@@H]1OP(=O)(O)O)[C@@H](O)C(=O)NCCC(=O)NCCSC(=O)CCC(=O)O` (stereo in doubt), the IC50 was above 99 µM.

Regarding `O=C(NCCc1cccc(F)c1)C(c1cccnc1)N(C(=O)c1cocn1)C1CCCCC1` (stereo unspecified), the IC50 is above 99.5 µM.

`O=C(COCC1(C(=O)Nc2cncc3ccccc23)CCOc2ccc(Cl)cc21)Nc1ncc[nH]1` (stereo unspecified) registered an IC50 of 1.99 µM.

Take `O=C(Cc1cccc(Cl)c1)Nc1cncc2cc(C(F)F)ccc12`: the IC50 was 2.25 µM.

`O=C(Cc1cccc(Cl)c1)Nc1cnc2n1CCCC2` displayed an IC50 of 93.8 µM.

Turning to `O=C(Nc1cnc2ccccn12)C1CCNc2cc(Cl)c(Cl)cc21` (stereo unspecified), the IC50 was 1.98 µM.

In turn, `CCN(CC)CCOc1ccc2cncc(N3CCC4(CN(S(=O)(=O)CC5(C#N)CC5)Cc5ccc(Cl)cc54)C3=O)c2c1` (stereo unspecified) registered an IC50 of 0.183 µM.

Molecule `CCc1ccc(S(C)(=O)=O)cc1C(=O)N1CCC(C2CCNC2)CC1` (stereo unspecified) returned an IC50 above 99.5 µM.

As to `O=C(NCCc1cccc(F)c1)C(c1cccnc1)N(C(=O)c1cnc[nH]1)c1ccc(OC2CCOC2)cc1` (stereo unspecified), the half-maximal inhibitory concentration (IC50) came to 25.8 µM.

For the molecule `CC(C)(C)c1ccc(N(C(=O)c2cnc[nH]2)C(C(=O)NCCc2cccc(F)c2)c2cc(=O)[nH]c3ccccc23)cc1` (stereo unspecified), the IC50 worked out at 1.31 µM.

For the molecule `Cn1nc(C(=O)N2CCOCC2)cc1C(=O)N(c1ccc(C(C)(C)C)cc1)C(C(=O)NCCc1cccc(F)c1)c1cccnc1` (stereo unspecified), the IC50 was 92.1 µM.

In the case of `O=C(NC(c1ccccc1)c1ccccc1)[C@H]1CN(C(=O)CCl)CCN1S(=O)(=O)c1ccsc1` (stereo in doubt), the IC50 came to 0.832 µM.

In turn, `N#Cc1ncn(CC(=O)Nc2ccc(Br)cc2Cl)n1` gave an IC50 of 15.7 µM.

Molecule `Cc1ccnnc1NC(=O)Cc1cccc(Cl)c1` had an IC50 above 99.5 µM.

Regarding `CCC(=O)Nc1ccc(N(Cc2ccccc2)C(=O)n2nnc3ccccc32)cc1`, the concentration for half-maximal inhibition (IC50) was above 99.5 µM.

As for `COC(C)(C)/C=C/C[C@@H](C)[C@H]1CC[C@@]2(C)[C@@H]3[C@@H](O[C@@H]4O[C@H](CO)[C@@H](O)[C@H](O)[C@H]4O)C=C4[C@@H](CC[C@H](O)C4(C)C)[C@]3(C=O)CC[C@]12C` (stereo in doubt), the IC50 is above 99.5 µM.

`Cc1ccncc1NC(=O)Cc1cc(Cl)cc(C2COC2)c1` came in with an IC50 of 19.1 µM.

Take `O=C(Cc1cc(Cl)cc(Nc2nc3c(Cl)cccc3s2)c1)Nc1cncc2ccccc12`: the IC50 is 2.11 µM.

The molecule `CC(C)(C)NC(=O)CN1CC(C(=O)Nc2cncc3cc(S(C)(=O)=O)ccc23)c2cc(Cl)ccc2C1=O` (stereo unspecified) gave an IC50 of 0.248 µM.

As to `NC(=O)CN1CCCN(C(=O)CCSc2ccc(F)cc2)CC1`, the IC50 was above 99.5 µM.

Turning to `O=C(OCC(=O)N1CCC(Cc2ccccc2)CC1)c1cc(=O)[nH]c(=O)[nH]1`, the IC50 was above 99.5 µM.

As to `O=C(Nc1cncc2ccccc12)C1COc2ccc(Cl)cc21` (stereo unspecified), the IC50 worked out at 0.764 µM.

In the case of `Cn1cnc(C(=O)N(c2ccc(C(C)(C)C)cc2)C(C(=O)NCCc2cccc(F)c2)c2cccnc2)n1` (stereo unspecified), the IC50 turned out to be 74.2 µM.

Turning to `N#CC1(CS(=O)(=O)N2Cc3ccc(Cl)cc3C(C(=O)Nc3cncc4cc(Cl)ccc34)C2)CC1` (stereo unspecified), the IC50 is 0.283 µM.

Regarding `C#CCCCC(=O)N[C@H](C(=O)N[C@H](CC(C)C)C(=O)NN(CCC(N)=O)C(=O)C1OC1C(=O)OCC)C(C)(C)C` (stereo in doubt), the IC50 is 0.292 µM and 0.206 µM.

`O=S(=O)(Nc1ccccc1SCc1cccc(Cl)c1F)c1cc(Cl)sc1Cl` showed an IC50 of 2.23 µM.

On to `C=CC(=O)N(c1ccc2ncsc2c1)C(C(=O)Nc1cccc(CC)c1)c1cccnc1` (stereo unspecified), for which the IC50 was 63.3 µM and 55 µM.

Molecule `CC(C)(C)c1ccc(N(C(=O)c2ccco2)C(C(=O)Nc2ccccc2)c2cccnc2)cc1` (stereo unspecified) came in with an IC50 of 11.2 µM.

Molecule `CC(C)(C)c1ccc(N(C(=O)c2nc(=O)[nH][nH]2)C(C(=O)NCCc2cccc(F)c2)c2cccnc2)cc1` (stereo unspecified) came in with a 50% inhibitory concentration (IC50) above 99.5 µM.

For the molecule `N#CC1CN(S(=O)(=O)N2Cc3ccc(Cl)cc3C3(CCN(c4cncc5ccccc45)C3=O)C2)C1` (stereo unspecified), the IC50 is 0.181 µM.
